What was measured:
Assay in all cases: relative viability (nuclei count vs DMSO), 5 days (fraction); higher = more cells survive
MLN4924 + Alpelisib = compound: NS(=O)(=O)OC[C@@H]1C[C@@H](n2ccc3c(N[C@H]4CCc5ccccc54)ncnc32)C[C@@H]1O [MLN4924] + Cc1nc(NC(=O)N2CCC[C@H]2C(N)=O)sc1-c1ccnc(C(C)(C)C(F)(F)F)c1 [Alpelisib] (partner 2 µM)
Summary of the method: (§1)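 Five library-drug doses in √10 steps were combined with a fixed anchor-drug dose, or a single drug was given alone, by pin tool to lung cancer cell lines in 1536-well plates the day after seeding. Nuclei were stained and counted after 5 days. Relative viability is the nuclei count in treated wells over that in vehicle wells, taken as the median of duplicate plates.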

MLN4924 + Crizotinib = compound: NS(=O)(=O)OC[C@@H]1C[C@@H](n2ccc3c(N[C@H]4CCc5ccccc54)ncnc32)C[C@@H]1O [MLN4924] + C[C@@H](Oc1cc(-c2cnn(C3CCNCC3)c2)cnc1N)c1c(Cl)ccc(F)c1Cl [Crizotinib] (partner 1 µM)
Summary of the method: as §1

MLN4924 + Foretinib = compound: NS(=O)(=O)OC[C@@H]1C[C@@H](n2ccc3c(N[C@H]4CCc5ccccc54)ncnc32)C[C@@H]1O [MLN4924] + COc1cc2c(Oc3ccc(NC(=O)C4(C(=O)Nc5ccc(F)cc5)CC4)cc3F)ccnc2cc1OCCCN1CCOCC1 [Foretinib] (partner 0.25 µM)
Summary of the method: as §1

MLN4924 + OSI-027 = compound: NS(=O)(=O)OC[C@@H]1C[C@@H](n2ccc3c(N[C@H]4CCc5ccccc54)ncnc32)C[C@@H]1O [MLN4924] + COc1cccc2cc(-c3nc([C@H]4CC[C@H](C(=O)O)CC4)n4ncnc(N)c34)[nH]c12 [OSI-027] (partner 0.5 µM)
Summary of the method: as §1

Row | Cell Line | relative viability (MLN4924 + Alpelisib; first compound 0.04 µM) | relative viability (MLN4924 + Alpelisib; first compound 0.1265 µM) | relative viability (MLN4924 + Alpelisib; first compound 0.4 µM) | relative viability (MLN4924 + Alpelisib; first compound 1.265 µM) | relative viability (MLN4924 + Alpelisib; first compound 4 µM) | relative viability (MLN4924 + Crizotinib; first compound 0.04 µM) | relative viability (MLN4924 + Crizotinib; first compound 0.1265 µM) | relative viability (MLN4924 + Crizotinib; first compound 0.4 µM) | relative viability (MLN4924 + Crizotinib; first compound 1.265 µM) | relative viability (MLN4924 + Crizotinib; first compound 4 µM) | relative viability (MLN4924 + Foretinib; first compound 0.04 µM) | relative viability (MLN4924 + Foretinib; first compound 0.1265 µM) | relative viability (MLN4924 + Foretinib; first compound 0.4 µM) | relative viability (MLN4924 + Foretinib; first compound 1.265 µM) | relative viability (MLN4924 + Foretinib; first compound 4 µM) | relative viability (MLN4924 + OSI-027; first compound 0.04 µM) | relative viability (MLN4924 + OSI-027; first compound 0.1265 µM) | relative viability (MLN4924 + OSI-027; first compound 0.4 µM) | relative viability (MLN4924 + OSI-027; first compound 1.265 µM) | relative viability (MLN4924 + OSI-027; first compound 4 µM)
1 | NCI-H2405 | 1.02 | 0.933 | 0.517 | 0.196 | 0.215 | 0.797 | 0.667 | 0.478 | 0.266 | 0.242 | 1.08 | 0.928 | 0.76 | 0.319 | 0.293 | 0.749 | 0.684 | 0.493 | 0.309 | 0.271
2 | NCI-H3122 | 0.799 | 0.452 | 0.251 | 0.188 | 0.133 | 0.369 | 0.338 | 0.358 | 0.178 | 0.153 | 0.903 | 0.385 | 0.232 | 0.106 | 0.0762 | 0.917 | 0.603 | 0.219 | 0.122 | 0.121
3 | PC-3 [JPC-3] | 0.996 | 0.963 | 0.896 | 0.327 | 0.266 | 0.986 | 0.909 | 0.477 | 0.34 | 0.293 | 1.05 | 0.976 | 0.688 | 0.375 | 0.293 | 0.829 | 0.744 | 0.659 | 0.283 | 0.237
4 | PC-14 | 0.929 | 0.904 | 0.826 | 0.177 | 0.0924 | 0.872 | 0.888 | 0.591 | 0.161 | 0.109 | 1.1 | 0.852 | 0.43 | 0.174 | 0.139 | 1.03 | 0.787 | 0.378 | 0.0583 | 0.065

Reference: the supplement of paper PMC10307832
